Measured values from ChEMBL document CHEMBL1201862, “PubChem BioAssay data set” (2004).
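Five compound concentrations were applied to cells in 96-well plates for 48 hours; endpoints were derived by simple linear interpolation of the resulting dose-response curve. At the GI50, growth is halved.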 Activity calls are given as the source filed them. Rule as the data show it: active = GI50 up to about 1.1 µM and inactive = higher.

Experiments:
Test in all cases: NCI anticancer screen, dose series, 48 h
A498 = tested on: A498
ACHN = tested on: ACHN
CCRF-CEM = tested on: CCRF-CEM
HCC 2998 = tested on: HCC 2998
HOP-62 = tested on: HOP-62
KM12 = tested on: KM12
MOLT-4 = tested on: MOLT-4
NCI-H226 = tested on: NCI-H226
NCI-H23 = tested on: NCI-H23
OVCAR-3 = tested on: OVCAR-3
RPMI-8226 = tested on: RPMI-8226
SF-268 = tested on: SF-268
TK-10 = tested on: TK-10
U-251 = tested on: U-251
UO-31 = tested on: UO-31
NCI-H522 = tested on: NCI-H522

Measured: GI50

Cc1nc(-n2nc(-c3ccccc3)cc2-c2ccccc2)sc1C(/C=C/c1ccc([N+](=O)[O-])cc1)=N/NC(N)=S
inactive: A498 > 100 µM | ACHN 46.1 µM | CCRF-CEM 22.2 µM | HCC 2998 23.1 µM | HOP-62 14 µM | KM12 21.7 µM | MOLT-4 13.6 µM | NCI-H226 22.8 µM | NCI-H23 27.8 µM | OVCAR-3 38.2 µM | RPMI-8226 11.9 µM | SF-268 31.4 µM | TK-10 > 100 µM | U-251 47.2 µM | UO-31 7.41 µM

Cc1cccc(/C=N/N=C(\N)NO)n1
inactive: A498 > 100 µM | ACHN 27.3 µM | CCRF-CEM 42.5 µM | HCC 2998 83.8 µM | HOP-62 17.1 µM | KM12 14.4 µM | MOLT-4 51.4 µM | NCI-H23 > 100 µM | NCI-H522 37.8 µM | OVCAR-3 > 100 µM | SF-268 16.1 µM | TK-10 > 100 µM | U-251 78.7 µM

Nc1ccccc1/C(O)=C1/CCOC1=O
inactive: A498 > 100 µM | ACHN > 100 µM | CCRF-CEM > 100 µM | HOP-62 > 100 µM | KM12 > 100 µM | MOLT-4 > 100 µM | NCI-H226 > 100 µM | NCI-H23 > 100 µM | NCI-H522 > 100 µM | OVCAR-3 > 100 µM | RPMI-8226 > 100 µM | SF-268 > 100 µM | TK-10 > 100 µM | U-251 > 100 µM | UO-31 > 100 µM

COc1ccc(C(O)C(c2ccc(OCc3ccccc3)cc2)c2ccc(OCc3ccccc3)cc2)cc1 (stereo unspecified)
inactive: ACHN > 100 µM | CCRF-CEM > 100 µM | HCC 2998 > 100 µM | HOP-62 > 100 µM | KM12 > 100 µM | NCI-H226 > 100 µM | NCI-H23 > 100 µM | NCI-H522 > 100 µM | OVCAR-3 > 100 µM | RPMI-8226 > 100 µM | SF-268 > 100 µM | TK-10 > 100 µM | U-251 > 100 µM | UO-31 > 100 µM

CCC(C)CN1C(=O)NC(C)(Cc2ccccc2)C1=O (stereo unspecified)
inactive: ACHN > 100 µM | HCC 2998 > 100 µM | HOP-62 > 100 µM | KM12 > 100 µM | NCI-H226 > 100 µM | NCI-H23 > 100 µM | NCI-H522 > 100 µM | SF-268 > 100 µM | TK-10 > 100 µM | U-251 > 100 µM | UO-31 > 100 µM

O=C(CCCC(=O)Nc1ccc(Cl)cc1Cl)CC(=O)c1ccc2ccccc2c1
inactive: ACHN > 100 µM | CCRF-CEM > 100 µM | HCC 2998 > 100 µM | HOP-62 > 100 µM | KM12 > 100 µM | MOLT-4 > 100 µM | NCI-H226 > 100 µM | NCI-H23 > 100 µM | OVCAR-3 > 100 µM | SF-268 > 100 µM | TK-10 > 100 µM | U-251 > 100 µM | UO-31 > 100 µM

O=C(CCCCCCCCCCc1ccccc1)C1=C(O)CCCC1=O
inactive: ACHN 28.1 µM | CCRF-CEM 16.8 µM | HCC 2998 35.9 µM | HOP-62 43.7 µM | KM12 30.9 µM | MOLT-4 30.3 µM | NCI-H226 26.1 µM | NCI-H23 20.2 µM | NCI-H522 27 µM | OVCAR-3 32.8 µM | RPMI-8226 29 µM | SF-268 17.5 µM | TK-10 42.2 µM | U-251 29.2 µM | UO-31 22 µM

C/C=C1/CCC2c3[nH]c4ccccc4c3CCN2C1 (stereo unspecified)
inactive: A498 > 100 µM | ACHN > 100 µM | CCRF-CEM > 100 µM | HOP-62 > 100 µM | KM12 > 100 µM | MOLT-4 > 100 µM | NCI-H226 57.5 µM | NCI-H23 > 100 µM | NCI-H522 > 100 µM | OVCAR-3 > 100 µM | SF-268 > 100 µM | TK-10 > 100 µM | U-251 > 100 µM | UO-31 > 100 µM

N=C(c1ccccc1)N(O)C1CCCCC1
inactive: HCC 2998 > 100 µM | HOP-62 > 100 µM | KM12 > 100 µM | NCI-H226 > 100 µM | NCI-H23 > 100 µM | NCI-H522 > 100 µM | SF-268 > 100 µM | TK-10 > 100 µM | U-251 > 100 µM | UO-31 > 100 µM

O=C(CC1(O)C(=O)Nc2ccccc21)c1ccc(O)cc1 (stereo unspecified)
inactive: A498 > 100 µM | ACHN > 100 µM | CCRF-CEM > 100 µM | HCC 2998 > 100 µM | HOP-62 > 100 µM | KM12 > 100 µM | MOLT-4 > 100 µM | NCI-H226 > 100 µM | NCI-H23 > 100 µM | OVCAR-3 > 100 µM | RPMI-8226 > 100 µM | SF-268 > 100 µM | TK-10 > 100 µM | U-251 > 100 µM | UO-31 > 100 µM

CN(/N=C\c1ccnc2ccccc12)c1ccc([N+](=O)[O-])cc1
inactive: A498 > 100 µM | ACHN > 100 µM | CCRF-CEM 19.5 µM | HCC 2998 > 100 µM | HOP-62 > 100 µM | KM12 16 µM | MOLT-4 > 100 µM | NCI-H226 > 100 µM | NCI-H23 > 100 µM | OVCAR-3 > 100 µM | RPMI-8226 8.26 µM | SF-268 9.51 µM | TK-10 > 100 µM | U-251 8.77 µM

Cc1cccc(C(C)(C)C)c1NC(=O)CC1C(=O)Nc2ccccc2[S+]1[O-] (stereo unspecified)
inactive: ACHN 31.4 µM | HCC 2998 68.1 µM | HOP-62 > 100 µM | KM12 73.6 µM | MOLT-4 20.3 µM | NCI-H226 69.3 µM | NCI-H23 26.4 µM | NCI-H522 39.4 µM | OVCAR-3 49.7 µM | RPMI-8226 34.3 µM | SF-268 > 100 µM | TK-10 46.5 µM | U-251 58.9 µM | UO-31 41.6 µM

[N-]=[N+]=Nc1ccccc1-[n+]1noc([O-])c1Br
inactive: ACHN > 100 µM | CCRF-CEM > 100 µM | HOP-62 > 100 µM | KM12 > 100 µM | MOLT-4 > 100 µM | NCI-H226 > 100 µM | NCI-H23 > 100 µM | NCI-H522 > 100 µM | OVCAR-3 > 100 µM | RPMI-8226 > 100 µM | SF-268 > 100 µM | TK-10 > 100 µM | U-251 > 100 µM | UO-31 > 100 µM

COc1ccc(Cc2cc3c(cc2OCC(=O)O)OCO3)cc1
inactive: A498 > 100 µM | ACHN > 100 µM | CCRF-CEM > 100 µM | HCC 2998 > 100 µM | HOP-62 > 100 µM | KM12 > 100 µM | MOLT-4 > 100 µM | NCI-H23 > 100 µM | NCI-H522 > 100 µM | OVCAR-3 > 100 µM | RPMI-8226 > 100 µM | SF-268 > 100 µM | TK-10 > 100 µM | UO-31 > 100 µM
